Experimental findings from ChEMBL document CHEMBL4392848, “Proline-based hydroxamates targeting the zinc-dependent deacetylase LpxC: Synthesis, antibacterial properties, and docking studies” (Bioorg Med Chem, 2019) are described below.

The term IC50 denotes the point on the concentration scale where inhibition reaches its midpoint. The MIC is the lowest concentration found to suppress growth. Broadly, the Ki is the equilibrium dissociation constant of an inhibitor or competing ligand from its target. A higher Ki goes with lower affinity.

Values after ≈ are worked out from the molar mass of the structure shown. Where only a bound is given, the exact number is not on record here.

The test system of test [1] is Proteus mirabilis. The experiment in a line: Antibacterial activity against Proteus mirabilis assessed as diameter of inhibition zone measured after 24 hrs by agar disc diffusion method. Format: functional. (In agar diffusion tests the substance spreads into inoculated agar from a disc or well.)
Test [2] relates to Enterobacter cloacae. Nature of the test: Antibacterial activity against Enterobacter cloacae assessed as diameter of inhibition zone measured after 24 hrs by agar disc diffusion method. Format: functional.
Test [3] concerns Citrobacter freundii. Nature of the test: Antibacterial activity against Citrobacter freundii assessed as diameter of inhibition zone measured after 24 hrs by agar disc diffusion method. The format is functional.
The target of test [4] is 72 kDa type IV collagenase (Homo sapiens, UniProt P08253). Nature of the test: Inhibition of human MMP2 using (7-methoxycoumarin-4-yl)acetyl-Pro-Leu-Gly-Leu-(3-(2,4-dinitrophenyl)-L-2,3-diamino-propionyl)Ala-Arg-NH2 as substrate preincubated for 30 mins followed by substrate addition and measured by fluorescence assay.
72 kDa type IV collagenase, sequence (P08253 whole entry, the tested form may be a part): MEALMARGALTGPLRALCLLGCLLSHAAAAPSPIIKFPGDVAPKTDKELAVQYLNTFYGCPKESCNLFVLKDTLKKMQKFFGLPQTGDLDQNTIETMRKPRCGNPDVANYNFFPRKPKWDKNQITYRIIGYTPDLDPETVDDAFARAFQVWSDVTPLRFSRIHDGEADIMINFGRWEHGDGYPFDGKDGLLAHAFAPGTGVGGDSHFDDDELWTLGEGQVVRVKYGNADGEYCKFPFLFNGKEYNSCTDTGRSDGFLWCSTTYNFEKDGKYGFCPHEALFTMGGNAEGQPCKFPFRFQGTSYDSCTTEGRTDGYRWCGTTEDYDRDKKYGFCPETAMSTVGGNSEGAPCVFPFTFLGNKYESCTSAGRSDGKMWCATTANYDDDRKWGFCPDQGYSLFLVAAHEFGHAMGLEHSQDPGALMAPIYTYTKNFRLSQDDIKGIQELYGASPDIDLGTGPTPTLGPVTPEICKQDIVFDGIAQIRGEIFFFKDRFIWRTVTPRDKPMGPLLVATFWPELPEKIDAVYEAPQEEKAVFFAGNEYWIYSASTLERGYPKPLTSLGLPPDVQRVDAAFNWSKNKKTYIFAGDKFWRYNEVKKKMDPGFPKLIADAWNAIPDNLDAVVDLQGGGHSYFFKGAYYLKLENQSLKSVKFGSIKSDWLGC
Test [5] relates to Escherichia coli. Nature of the test: Antibacterial activity against Escherichia coli D22 assessed as diameter of inhibition zone measured after overnight incubation by agar disc diffusion method. Format: functional.
Test [6] relates to Escherichia coli. The experiment in a line: Antibacterial activity against Escherichia coli D22 measured after 20 hrs by microdilution method. Format: functional. The conditions noted are these: D22, 20 h. In general terms: Broth dilution looks for growth in wells or tubes with falling amounts of substance.
The target in test [7] is Matrix metalloproteinase-9 (Homo sapiens, UniProt P14780). Nature of the test: Inhibition of human MMP9 using (7-methoxycoumarin-4-yl)acetyl-Pro-Leu-Gly-Leu-(3-(2,4-dinitrophenyl)-L-2,3-diamino-propionyl)Ala-Arg-NH2 as substrate preincubated for 30 mins followed by substrate addition and measured by fluorescence assay.
Matrix metalloproteinase-9, sequence (P14780 whole entry): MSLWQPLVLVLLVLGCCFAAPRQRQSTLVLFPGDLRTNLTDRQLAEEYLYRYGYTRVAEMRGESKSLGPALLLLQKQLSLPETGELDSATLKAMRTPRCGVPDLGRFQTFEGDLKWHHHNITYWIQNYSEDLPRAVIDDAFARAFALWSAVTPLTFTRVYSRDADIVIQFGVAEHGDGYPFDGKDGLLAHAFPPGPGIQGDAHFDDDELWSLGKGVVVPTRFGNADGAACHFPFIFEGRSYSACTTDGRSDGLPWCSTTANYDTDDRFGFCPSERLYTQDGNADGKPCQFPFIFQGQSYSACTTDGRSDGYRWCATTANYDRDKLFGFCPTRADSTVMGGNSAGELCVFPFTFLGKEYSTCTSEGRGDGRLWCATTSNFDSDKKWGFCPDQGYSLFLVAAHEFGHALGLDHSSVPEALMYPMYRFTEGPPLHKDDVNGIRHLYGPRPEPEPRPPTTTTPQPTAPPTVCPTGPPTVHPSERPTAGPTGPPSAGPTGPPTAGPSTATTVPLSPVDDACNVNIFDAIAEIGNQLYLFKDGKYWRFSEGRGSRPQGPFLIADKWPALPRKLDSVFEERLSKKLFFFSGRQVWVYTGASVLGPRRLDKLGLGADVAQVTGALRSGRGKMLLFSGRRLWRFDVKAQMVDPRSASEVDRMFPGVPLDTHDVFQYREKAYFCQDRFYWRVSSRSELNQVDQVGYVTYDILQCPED
In test [8] the target is Neutrophil collagenase (Homo sapiens, UniProt P22894). The experiment in a line: Inhibition of human MMP8 using (7-methoxycoumarin-4-yl)acetyl-Pro-Leu-Gly-Leu-(3-(2,4-dinitrophenyl)-L-2,3-diamino-propionyl)Ala-Arg-NH2 as substrate preincubated for 30 mins followed by substrate addition and measured by fluorescence assay.
Neutrophil collagenase, sequence (P22894 whole entry, the tested form may be a part): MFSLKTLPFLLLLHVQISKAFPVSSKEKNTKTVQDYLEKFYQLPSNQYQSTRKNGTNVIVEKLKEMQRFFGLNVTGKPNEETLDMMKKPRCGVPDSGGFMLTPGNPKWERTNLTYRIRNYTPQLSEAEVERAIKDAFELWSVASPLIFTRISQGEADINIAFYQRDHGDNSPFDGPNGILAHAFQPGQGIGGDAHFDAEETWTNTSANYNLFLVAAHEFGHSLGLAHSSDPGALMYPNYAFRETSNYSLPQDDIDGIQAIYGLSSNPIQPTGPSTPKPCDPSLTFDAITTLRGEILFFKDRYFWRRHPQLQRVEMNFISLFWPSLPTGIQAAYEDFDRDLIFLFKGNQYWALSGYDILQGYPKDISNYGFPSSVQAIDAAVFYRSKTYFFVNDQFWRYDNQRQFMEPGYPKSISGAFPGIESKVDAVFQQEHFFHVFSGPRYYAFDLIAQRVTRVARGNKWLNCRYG
Test [9] concerns Proteus vulgaris. Nature of the test: Antibacterial activity against Proteus vulgaris assessed as diameter of inhibition zone measured after 24 hrs by agar disc diffusion method. Format: functional.
In test [10] the test system is Pseudomonas aeruginosa. Nature of the test: Antibacterial activity against Pseudomonas aeruginosa assessed as diameter of inhibition zone measured after 24 hrs by agar disc diffusion method. The format is functional.
The target of test [11] is Collagenase 3 (Homo sapiens, UniProt P45452). The experiment in a line: Inhibition of human MMP13 using (7-methoxycoumarin-4-yl)acetyl-Pro-Leu-Gly-Leu-(3-(2,4-dinitrophenyl)-L-2,3-diamino-propionyl)Ala-Arg-NH2 as substrate preincubated for 30 mins followed by substrate addition and measured by fluorescence assay.
For test [12], the system named is Klebsiella oxytoca. Nature of the test: Antibacterial activity against Klebsiella oxytoca assessed as diameter of inhibition zone measured after 24 hrs by agar disc diffusion method. Format: functional.
The subject of test [13] is Escherichia coli. Nature of the test: Antibacterial activity against Escherichia coli BL21(DE3) measured after 20 hrs by microdilution method. The format is functional.
The test system of test [14] is Klebsiella aerogenes. Nature of the test: Antibacterial activity against Enterobacter aerogenes assessed as diameter of inhibition zone measured after 24 hrs by agar disc diffusion method. Format: functional.
Test [15] concerns Escherichia coli. The experiment in a line: Antibacterial activity against Escherichia coli BL21(DE3) assessed as diameter of inhibition zone measured after overnight incubation by agar disc diffusion method. Format: functional.
Test [16] can be described thus: Inhibition of Escherichia coli LpxC C63A mutant using UDP-3-O-[(R)-3-hydroxymyristoyl]-N-acetylglucosamine as substrate measured after 30 mins by fluorescence based microplate assay.
Test [17] concerns Klebsiella pneumoniae. The experiment in a line: Antibacterial activity against Klebsiella pneumoniae assessed as diameter of inhibition zone measured after 24 hrs by agar disc diffusion method. The format is functional.

As for `CCCCCc1ccc(C#Cc2ccc(C(=O)N3C[C@H](O)C[C@H]3C(=O)NO)cc2)cc1`, the “diameter of the inhibition zone (DIZ)” value was less than 6 mm in [1]; 8 mm in test [2]; 9 mm in test [3]; 8 mm in [5]; 9 mm in test [9]; less than 6 mm in test [10]. Also, the “diameter of the inhibition zone (DIZ)” value in [12] is recorded as 7 mm; in [14], less than 6 mm; in test [15], less than 6 mm; in [17], less than 6 mm. Besides, the IC50 stood at 151 nM in test [4]; 845 nM in [7]; 282 nM in test [8]; 11 nM in test [11]; 5900 nM in test [16]. For the same compound, the minimal inhibitory concentration (MIC) in test [6] was 16 µM (≈ 6.73 µg/mL); in test [13], greater than 256 µM. Also, the inhibition constant (Ki) in [16] was determined as 810 nM.

`O=C(NO)[C@@H]1C[C@@H](O)CN1C(=O)c1ccc(C#Cc2ccc(CN3CCOCC3)cc2)cc1`: the “diameter of the inhibition zone (DIZ)” value in test [1] is given as 9 mm; in test [2], less than 6 mm; in test [3], 10 mm; in test [5] it was 20.7 mm; in test [9], less than 6 mm; in [10], less than 6 mm. Further, the “diameter of the inhibition zone (DIZ)” value in test [12] is less than 6 mm; in test [14], 16 mm; in test [15], 7.5 mm; in test [17] it was 9 mm. Also, the half-inhibitory concentration (IC50) in [4] stood at 1000 nM; in test [7] it was 9000 nM; in [8] it was 2000 nM; in test [11], 1000 nM; in test [16], 47900 nM. Besides, the results for the MIC in test [6] and in test [13] were 16 µM (≈ 7.19 µg/mL) and greater than 256 µM, respectively. Besides, the Ki in [16] was found to be 6600 nM.

Take `O=C(NO)[C@@H]1C[C@H](O)CN1C(=O)c1ccc(C#Cc2ccc(CN3CCOCC3)cc2)cc1`: the “diameter of the inhibition zone (DIZ)” value in test [1] is 11 mm; in test [2] it was 8 mm; in test [3] it was 12 mm; in test [5], 19.5 mm; in [9] it was 9 mm; in test [10] it was less than 6 mm. Also, the “diameter of the inhibition zone (DIZ)” value in test [12] turned out to be 8 mm; in test [14], 15 mm; in [15], 11.3 mm; in test [17] it was 10 mm. Besides, the IC50 in [4] was found to be 55 nM; in test [7], 1000 nM; in test [8], 198 nM; in test [11], 57 nM; in test [16], 29500 nM. Further, the MIC was 16 µM (≈ 7.19 µg/mL) in test [6] and greater than 256 µM in test [13]. Further, the Ki in test [16] worked out at 4100 nM.

Turning to `CCCCCc1ccc(C#Cc2ccc(C(=O)N3C[C@@H](O)C[C@H]3C(=O)NO)cc2)cc1`, the “diameter of the inhibition zone (DIZ)” value was 7 mm in test [1]; less than 6 mm in test [2]; 7 mm in test [3]; 8 mm in [5]; 8 mm in test [9]; less than 6 mm in test [10]. Besides, the “diameter of the inhibition zone (DIZ)” value in [12] was 7 mm; in test [14], less than 6 mm; in test [15] it was less than 6 mm; in test [17], less than 6 mm. Moreover, the IC50 in [4] is 3 nM; in [7], 120 nM; in [8], 15 nM; in [11], 0.7 nM; in test [16], greater than 200000 nM. Besides, the MIC in test [6] is greater than 128 µM; in test [13], greater than 256 µM. This compound returned a Ki in test [16] greater than 27600 nM.
